According to article PMC11823630, “In vitro potentiation of tetracyclines in Pseudomonas aeruginosa by RW01, a new cyclic peptide” (Antimicrobial Agents and Chemotherapy, 2024):
≈ marks a conversion by molar mass, not a printed value.

What was measured:
P. aeruginosa 41B = assay: MIC, CLSI broth microdilution in BD Phoenix AST Broth; type: cell-based, Pseudomonas aeruginosa; conditions: strain 41B
P. aeruginosa 41A = assay: as above; type: cell-based, Pseudomonas aeruginosa; conditions: strain 41A
P. aeruginosa PAOΔmexZ = assay: as above; type: cell-based, Pseudomonas aeruginosa; conditions: strain PAOΔmexZ
P. aeruginosa PAO1 [1] = assay: as above; type: cell-based, Pseudomonas aeruginosa
P. aeruginosa PAOUW∆oprF = assay: as above; type: cell-based, Pseudomonas aeruginosa
P. aeruginosa 125A = assay: as above; type: cell-based, Pseudomonas aeruginosa; conditions: strain 125A
P. aeruginosa PAOUW = assay: as above; type: cell-based, Pseudomonas aeruginosa; conditions: strain PAOUW
P. aeruginosa PAOΔmexR = assay: as above; type: cell-based, Pseudomonas aeruginosa
P. aeruginosa PAOΔoprM = assay: as above; type: cell-based, Pseudomonas aeruginosa
P. aeruginosa 125B = assay: as above; type: cell-based, Pseudomonas aeruginosa; conditions: strain 125B
[2] = test system: PAO1 mutant MIN8_3, pilZ(nt18InsT); assay: MIC, E-test on MHA; type: cell-based; conditions: Pseudomonas aeruginosa, PAO1, read-out: MIC, E-test
[3] = test system: PAO1 mutant MIN4_RW01_4, pmrB(Y98N); assay: MIC, E-test on MHA; type: cell-based; conditions: Pseudomonas aeruginosa, PAO1, read-out: MIC, E-test
[4] = test system: PAO1 mutant MIN2_RW01_1, pmrB(V215L); assay: MIC, E-test on MHA; type: cell-based; conditions: Pseudomonas aeruginosa, PAO1, read-out: MIC, E-test
[5] = test system: PAO1 mutant MIN8_2, pilZ(nt18InsT); assay: MIC, E-test on MHA; type: cell-based; conditions: Pseudomonas aeruginosa, PAO1, read-out: MIC, E-test
[6] = test system: PAO1 mutant MIN1_RW01_4, pmrB(F124L); assay: MIC, E-test on MHA; type: cell-based; conditions: Pseudomonas aeruginosa, PAO1, read-out: MIC, E-test
[7] = test system: PAO1 mutant MIN16_1, nalD(T43P); assay: MIC, E-test on MHA; type: cell-based; conditions: Pseudomonas aeruginosa, PAO1, read-out: MIC, E-test
[8] = test system: PAO1 mutant MIN2_RW01_3, parS(V152A); assay: MIC, E-test on MHA; type: cell-based; conditions: Pseudomonas aeruginosa, PAO1, read-out: MIC, E-test
P. aeruginosa PAO1 [9] = assay: MIC in the presence of 25% mouse serum; conditions: PAO1, 25% non-inactivated C57BL/6RJ mouse serum
[10] = test system: PAO1 mutant MIN4_RW01_2, pmrB(F124S); assay: MIC, E-test on MHA; type: cell-based; conditions: Pseudomonas aeruginosa, PAO1, read-out: MIC, E-test
[11] = test system: PAO1 mutant MIN4_RW01_3, pmrB(M292T); assay: MIC, E-test on MHA; type: cell-based; conditions: Pseudomonas aeruginosa, PAO1, read-out: MIC, E-test
[12] = Pseudomonas aeruginosa, agent alone, 37°C, 18–22 h, three biological replicates
[13] = MIC of the antibiotic with fixed 100 mg/L RW01
[14] = antibiotic MIC alone vs with RW01 100 mg/L
[15] = antibiotic with RW01 at 100 mg/L
[16] = strain PAO1, antibiotic with RW01 at 100 mg/L
[17] = strain PAOUWΔoprF (printed PAOΔoprF), antibiotic with RW01 at 100 mg/L
[18] = strain PAOΔmexR, antibiotic with RW01 at 100 mg/L
[19] = strain PAOΔoprM, antibiotic with RW01 at 100 mg/L

C[C@H]1c2cccc(O)c2C(=O)C2=C(O)[C@]3(O)C(=O)C(C(N)=O)=C(O)[C@@H](N(C)C)[C@@H]3[C@@H](O)[C@@H]21 [Doxycycline, doxycycline]
MIC (P. aeruginosa 41B; [12]): 16 µg/mL | Antibiotic MIC + RW01 100 mg/L (P. aeruginosa 41B; [13]): 2 µg/mL | Potentiation (fold) (P. aeruginosa 41B; [14]): 8 fold | FICI (P. aeruginosa 41B; [15]): 0.223 | FICI-determined effect (P. aeruginosa 41B; [15]): Synergy (synergistic effect if FICI is ≤0.5) | MIC (P. aeruginosa 41A; [12]): 16 µg/mL | Antibiotic MIC + RW01 100 mg/L (P. aeruginosa 41A; [13]): 2 µg/mL | Potentiation (fold) (P. aeruginosa 41A; [14]): 8 fold | FICI (P. aeruginosa 41A; [15]): 0.223 | FICI-determined effect (P. aeruginosa 41A; [15]): Synergy (synergistic effect if FICI is ≤0.5) | MIC (P. aeruginosa PAOΔmexZ; [12]): 64 µg/mL | Antibiotic MIC + RW01 100 mg/L (P. aeruginosa PAOΔmexZ; [13]): 4 µg/mL | Potentiation (fold) (P. aeruginosa PAOΔmexZ; [14]): 16 fold | FICI (P. aeruginosa PAOΔmexZ; [15]): 0.160 | FICI-determined effect (P. aeruginosa PAOΔmexZ; [15]): Synergy (synergistic effect if FICI is ≤0.5) | MIC (P. aeruginosa PAO1 [1]; Pseudomonas aeruginosa, PAO1, strain PAO1, agent alone, 37°C, 18–22 h, three biological replicates, read-out: MIC): 16 µg/mL | Antibiotic MIC + RW01 100 mg/L (P. aeruginosa PAO1 [1]; strain PAO1, MIC of the antibiotic with fixed 100 mg/L RW01): 1 µg/mL | Potentiation (fold) (P. aeruginosa PAO1 [1]; strain PAO1, antibiotic MIC alone vs with RW01 100 mg/L): 16 fold | FICI (P. aeruginosa PAO1 [1]; [16]): 0.258 | FICI-determined effect (P. aeruginosa PAO1 [1]; [16]): Synergy (synergistic effect if FICI is ≤0.5) | MIC (P. aeruginosa PAOUW∆oprF; Pseudomonas aeruginosa, strain PAOUWΔoprF, agent alone, 37°C, 18–22 h, three biological replicates): 16 µg/mL | Potentiation (fold) (P. aeruginosa PAOUW∆oprF; strain PAOUWΔoprF (printed PAOΔoprF), antibiotic MIC alone vs with RW01 100 mg/L): 16 fold | FICI (P. aeruginosa PAOUW∆oprF; [17]): 0.160 | FICI-determined effect (P. aeruginosa PAOUW∆oprF; [17]): Synergy (synergistic effect if FICI is ≤0.5) | Antibiotic MIC + RW01 100 mg/L (P. aeruginosa PAOUW∆oprF; strain PAOUWΔoprF, MIC of the antibiotic with fixed 100 mg/L RW01): 1 µg/mL | MIC (P. aeruginosa 125A; [12]): 4 µg/mL | Potentiation (fold) (P. aeruginosa 125A; [14]): 8 fold | FICI (P. aeruginosa 125A; [15]): 0.320 | FICI-determined effect (P. aeruginosa 125A; [15]): Synergy (synergistic effect if FICI is ≤0.5) | MIC (P. aeruginosa PAOUW; Pseudomonas aeruginosa, agent alone, 37°C, 18–22 h, three biological replicates, read-out: MIC): 32 µg/mL | Antibiotic MIC + RW01 100 mg/L (P. aeruginosa PAOUW; [13]): 4 µg/mL | Potentiation (fold) (P. aeruginosa PAOUW; [14]): 8 fold | FICI (P. aeruginosa PAOUW; [15]): 0.223 | FICI-determined effect (P. aeruginosa PAOUW; [15]): Synergy (synergistic effect if FICI is ≤0.5) | MIC (P. aeruginosa PAOΔmexR; Pseudomonas aeruginosa): 64 µg/mL | Antibiotic MIC + RW01 100 mg/L (P. aeruginosa PAOΔmexR; strain PAOΔmexR, MIC of the antibiotic with fixed 100 mg/L RW01): 32 µg/mL | Potentiation (fold) (P. aeruginosa PAOΔmexR; strain PAOΔmexR, antibiotic MIC alone vs with RW01 100 mg/L): 2 fold | FICI (P. aeruginosa PAOΔmexR; [18]): 0.598 | FICI-determined effect (P. aeruginosa PAOΔmexR; [18]): Additivity (additive effect if 0.5 < FICI ≤ 1.0) | MIC (P. aeruginosa PAOΔoprM; Pseudomonas aeruginosa): 0.5 µg/mL | Antibiotic MIC + RW01 100 mg/L (P. aeruginosa PAOΔoprM; strain PAOΔoprM, MIC of the antibiotic with fixed 100 mg/L RW01): 0.125 µg/mL | Potentiation (fold) (P. aeruginosa PAOΔoprM; strain PAOΔoprM, antibiotic MIC alone vs with RW01 100 mg/L): 4 fold | FICI (P. aeruginosa PAOΔoprM; [19]): 0.348 | FICI-determined effect (P. aeruginosa PAOΔoprM; [19]): Synergy (synergistic effect if FICI is ≤0.5) | MIC (P. aeruginosa 125B; [12]): 4 µg/mL | Antibiotic MIC + RW01 100 mg/L (P. aeruginosa 125B; [13]): 0.5 µg/mL | Potentiation (fold) (P. aeruginosa 125B; [14]): 8 fold | FICI (P. aeruginosa 125B; [15]): 0.320 | FICI-determined effect (P. aeruginosa 125B; [15]): Synergy (synergistic effect if FICI is ≤0.5) | MIC [2]: 128 µg/mL (≈ 288 µM) | MIC [3]: 64 µg/mL (≈ 144 µM) | MIC [4]: 96 µg/mL (≈ 216 µM) | MIC [5]: 256 µg/mL (≈ 576 µM) | MIC [6]: 96 µg/mL (≈ 216 µM) | MIC [7]: 256 µg/mL (≈ 576 µM) | MIC [8]: 256 µg/mL (≈ 576 µM) | MIC in the presence of serum (P. aeruginosa PAO1 [9]; antibiotic alone): unchanged | MIC + RW01 in the presence of serum (P. aeruginosa PAO1 [9]; antibiotic with RW01 100 mg/L): unchanged | MIC [10]: 64 µg/mL (≈ 144 µM) | MIC [11]: 128 µg/mL (≈ 288 µM)
